{"source": "patent US10799536B2", "about": "“Method of treating multiple myeloma using natural killer cells expressing a chimeric antigen receptor for CD38” (Onkimmune Limited, priority 2016, dated 2020)", "molecules": {"B1": {"name": "TRAIL variant: TRAIL variant of WO 2009/077857, wildtype TRAIL gene containing the D269H/E195R mutation (protein)", "chain": "MAMMEVQGGPSLGQTCVLIVIFTVLLQSLCVAVTYVYFTNELKQMQDKYSKSGIACFLKEDDSYWDPNDEESMNSPCWQVKWQLRQLVRKMILRTSEETISTVQEKQQNISPLVRERGPQRVAAHITGTRGRSNTLSSPNSKNEKALGRKINSWESSRSGHSFLSNLHLRNGELVIHEKGFYYIYSQTYFRFQERIKENTKNDKQMVQYIYKYTSYPDPILLMKSARNSCWSKDAEYGLYSIYQGGIFELKENDRIFVSVTNEHLIDMHHEASFFGAFLVG"}}, "key": {"DR5 [1]": {"system": "DR5", "conditions": "for DR5 expression, MFI: 24 hours, FIG. 20", "text": "Bortezomib was bought from Millennium Pharmaceuticals."}, "LIR2 gene": {"system": "LIR2 gene", "assay": "gRNA cleavage in K562 cells, T7E1 mismatch detection assay", "assay_type": "cell-based, human", "conditions": "FIG. 6", "experimental": "(§1) Cells having inhibitory receptor function removed were prepared as follows. gRNA constructs were designed and prepared to target genes encoding the ‘classical’ inhibitory receptor LIR2 and the ‘checkpoint’ inhibitory receptor CTLA4 in the human genome of NK cells. CRISPR/Cas9 genome editing was then used to knock out the LIR2 and CTLA4 target genes.\n(§2) Two gRNA candidates were selected for each target gene and their cleavage efficacies in K562 cells determined.\n(§3) K562 cells were transfected with the prepared gRNA constructs (FIG. 5) and subsequently harvested for PCR amplification. The presence of GFP expression was used to report successful incorporation of the gRNA construct into the K562 cells. This confirmed expression of the Cas9 gene and therefore the ability to knock out expression of the LIR2 and CTLA4 genes. The cleavage activity of the gRNA constructs was determined using an in vitro mismatch detection assay. T7E1 endonuclease I recognizes and cleaves non-perfectly matched DNA, allowing the parental LIR2 and CTLA4 genes to be compared to the mutated genes following CRISPR/Cas9 transfection and non-homologous end joining (NHEJ).\nThe three bands corresponding to each mutation relate to the parental gene (601) and the two resulting strands following detection of a mismatch in the DNA sequence after transfection (602 and 603)."}, "CTLA4 gene": {"system": "CTLA4 gene", "assay": "gRNA cleavage in K562 cells, T7E1 mismatch detection assay", "assay_type": "cell-based, human", "conditions": "FIG. 7", "experimental": "as §1, §2, §3"}, "decoy receptor DcR1": {"molecular_target": "T1, decoy receptor DcR1 (Homo sapiens, UniProt O14798)", "T1 sequence (O14798 26-236)": "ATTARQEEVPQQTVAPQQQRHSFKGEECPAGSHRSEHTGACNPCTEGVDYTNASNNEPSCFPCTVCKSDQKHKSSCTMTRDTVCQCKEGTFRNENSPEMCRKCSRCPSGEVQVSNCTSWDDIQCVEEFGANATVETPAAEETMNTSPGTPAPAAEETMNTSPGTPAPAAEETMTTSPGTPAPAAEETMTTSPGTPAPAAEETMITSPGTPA", "conditions": "surface plasmon resonance; WO 2009/077857; cited from earlier work"}, "DR4": {"molecular_target": "DR4 (Homo sapiens, UniProt O00220)", "conditions": "surface plasmon resonance; WO 2009/077857; cited from earlier work"}, "DR5 [2]": {"molecular_target": "DR5 (Homo sapiens, UniProt O14763)", "conditions": "D269H/E195R mutation, relative to wildtype TRAIL; cited from earlier work"}, "[3]": {"system": "decoy receptors (DcR1 and DcR2)", "conditions": "D269H/E195R mutation, relative to wildtype TRAIL; cited from earlier work"}}, "note": "Where two headings read alike, the source gives them in different places."}
{"molecule": "CC(C)C[C@H](NC(=O)[C@H](Cc1ccccc1)NC(=O)c1cnccn1)B(O)O", "note": "[Bortezomib]", "values": [{"measurement": "DR5 expression, MFI", "setting": "DR5 [1]; MM1.S cells, 2.5 nm of Bortezomib, untreated MFI 214", "result": 662}, {"measurement": "DR5 expression, MFI", "setting": "DR5 [1]; RPMI 8226 cells, 10 nm Bortezomib, untreated MFI 273", "result": 679}, {"measurement": "DR5 expression at high doses", "setting": "DR5 [1]; high doses of Bortezomib", "result": "could not be upregulated"}]}
{"molecule": "g18 gRNA: gRNA targeting hLIR2, CGAATCGCAGGTGGTCGCACAGG (SEQ ID NO: 25) (listed as DNA, chemistry not fully specified; listed as Homo sapiens)", "values": [{"measurement": "success rate of transfection (LIR2 knockout)", "setting": "LIR2 gene", "result": 10, "unit": "%"}]}
{"molecule": "g15 gRNA: gRNA targeting hCTLA4, CCTTGTGCCGCTGAAATCCAAGG (SEQ ID NO: 27) (listed as DNA, chemistry not fully specified; listed as Homo sapiens)", "values": [{"measurement": "success rate of transfection (CTLA4 knockout)", "setting": "CTLA4 gene", "result": 26, "unit": "%"}]}
{"molecule": "g7 gRNA: gRNA targeting hCTLA4, CACTCACCTTTGCAGAAGACAGG (SEQ ID NO: 26) (listed as DNA, chemistry not fully specified; listed as Homo sapiens)", "values": [{"measurement": "success rate of transfection (CTLA4 knockout)", "setting": "CTLA4 gene", "result": 32, "unit": "%"}]}
{"molecule": "g9 gRNA: gRNA targeting hLIR2, GAGTCACAGGTGGCATTTGGCGG (SEQ ID NO: 24) (listed as DNA, chemistry not fully specified; listed as Homo sapiens)", "values": [{"measurement": "success rate of transfection (LIR2 knockout)", "setting": "LIR2 gene", "result": 11, "unit": "%"}]}
{"molecule": "Wildtype TRAIL: TNF-related apoptosis-inducing ligand, wild-type protein", "values": [{"measurement": "Kd", "setting": "decoy receptor DcR1", "result": "> 20", "unit": "nM"}, {"measurement": "Kd", "setting": "DR4", "result": "> 2", "unit": "nM"}]}
{"molecule": "B1", "values": [{"measurement": "affinity of the TRAIL variant for DR5", "setting": "DR5 [2]", "result": "significantly increases"}, {"measurement": "affinity for both decoy receptors (DcR1 and DcR2)", "setting": "[3]", "result": "reducing"}]}
